From patent US20260226049A1, “NITROGEN-CONTAINING HETEROCYCLIC COMPOUND, PREPARATION METHOD THEREFOR, AND USE THEREOF” (BIVISION PHARMACEUTICALS, INC, priority 2023, published 2026)

Tested on: HT1080 cell line with high FAP expression
Experiment: ^68Ga labeling and animal imaging assay (PET/CT) in tumor-bearing mice
Assay type: in vivo
Set-up: Imaging data, Muscle / Imaging data, Bone / Imaging data, Bladder / Imaging data, Tumor / Imaging data, Intestine / Imaging data, Brain / Imaging data, Heart / Imaging data, Liver / Imaging data, Lung / Imaging data, Kidney: unit not given here
Settings: for uptake in the tumor at 3 hours: 3 hours after injection
Description: A. 1.0 mg of JHH7 precursor was weighed and dissolved in 0.1 M sodium acetate buffer to prepare a 1.0 mg/mL precursor solution.
B. The Ge/Ga generator was eluted stepwise with 5 mL of 0.1 M HCl, and the highest activity fraction (0.5 mL) was collected. 0.5 mL of metal-free 0.1 M sodium acetate buffer (pH=4.5) was added. In a 1.5 mL centrifuge tube as the reaction tube, a specific amount of precursor [1000 (molecular weight)/14.94 μL (precursor solution)/mCi (radionuclide)] was added, vortex-mixed for 10 s, and heated at 95° C., 800 rpm for 15 min.
C. The C18 Sep-Pak was activated with anhydrous ethanol, rinsed thoroughly with pure water, and the excess water was removed.
D. The solution after the reaction was passed through the C18 Sep-Pak, rinsed with pure water, and the excess water was removed. Subsequently, the C18 Sep-Pak was eluted with ethanol, collecting approximately 10 tubes with 3 drops per tube.
E. The final preparation should be a clear solution, prepared fresh for immediate use and limited to the same day.
1) The PET/CT was powered on according to the standard operating procedures, the scanning software was launched, and daily calibration was performed.
2) Animal anesthesia preparation was conducted, where tumor-bearing mice (supplied by Shanghai Alamo Pharmaceutical Technology Co., Ltd., HT1080 cell line with high FAP expression) were anesthetized using isoflurane.
3) After the loss of righting reflex in the tumor-bearing mice, the imaging agent was injected via the tail vein.
4) After drug administration, dynamic scanning at 1 hour and static scanning was performed at 3 hours were performed for 10 minutes.
5) During the process, animal body weight, injection dose, injection time, and residual dose were recorded according to the record sheet, and the time of measuring the injection dose and the time of measuring the residual dose were separately recorded.
6) The uptake in animal tumors, muscles, and other organs was analyzed using PMOD software.
^68Ga-labeled compounds JHH7 and JHH11 were imaged in tumor-bearing mice, and the results are shown in FIG. 5 and FIG. 6, with the imaging data shown in Tables 4 and 5.

[1] = tumor-bearing mice, intravenous injection

## N#C[C@@H]1CC(F)(F)CN1C(=O)CNC(=O)c1ccc2c(c1)CN(C(=O)CCC(=O)NCCNC(=O)CCC(C(=O)O)N1CCN(CC(=O)[O-])CCN(CC(=O)[O-])CCN(CC(=O)[O-])CC1)C2.[68Ga+3] (stereo partly drawn) [^68Ga-JHH7]
5 min
  Imaging data, Bladder: 3.02
  Imaging data, Bone: 0.17
  Imaging data, Brain: 0.90
  Imaging data, Heart: 4.61
  Imaging data, Intestine: 0.47
  Imaging data, Kidney: 6.73
  Imaging data, Liver: 1.71
  Imaging data, Lung: 1.78
  Imaging data, Muscle: 0.81
  Imaging data, Tumor: 0.91
10 min
  Imaging data, Bladder: 49.75
  Imaging data, Bone: 0.28
  Imaging data, Brain: 0.82
  Imaging data, Heart: 2.19
  Imaging data, Intestine: 0.21
  Imaging data, Kidney: 5.59
  Imaging data, Liver: 0.88
  Imaging data, Lung: 0.94
  Imaging data, Muscle: 1.56
  Imaging data, Tumor: 2.47
15 min
  Imaging data, Bladder: 84.10
  Imaging data, Bone: 0.30
  Imaging data, Brain: 0.59
  Imaging data, Heart: 1.43
  Imaging data, Intestine: 0.23
  Imaging data, Kidney: 3.87
  Imaging data, Liver: 0.50
  Imaging data, Lung: 0.79
  Imaging data, Muscle: 1.42
  Imaging data, Tumor: 3.36
20 min
  Imaging data, Bladder: 109.69
  Imaging data, Bone: 0.18
  Imaging data, Brain: 0.55
  Imaging data, Heart: 1.01
  Imaging data, Intestine: 0.22
  Imaging data, Kidney: 3.35
  Imaging data, Liver: 0.38
  Imaging data, Lung: 0.45
  Imaging data, Muscle: 1.30
  Imaging data, Tumor: 3.88
25 min
  Imaging data, Bladder: 145.55
  Imaging data, Bone: 0.17
  Imaging data, Brain: 0.48
  Imaging data, Heart: 0.94
  Imaging data, Intestine: 0.15
  Imaging data, Kidney: 2.74
  Imaging data, Liver: 0.23
  Imaging data, Lung: 0.28
  Imaging data, Muscle: 1.29
  Imaging data, Tumor: 4.70
30 min
  Imaging data, Bladder: 157.22
  Imaging data, Bone: 0.10
  Imaging data, Brain: 0.46
  Imaging data, Heart: 0.72
  Imaging data, Intestine: 0.16
  Imaging data, Kidney: 2.88
  Imaging data, Liver: 0.25
  Imaging data, Lung: 0.37
  Imaging data, Muscle: 0.97
  Imaging data, Tumor: 5.00
1.5 h
  Imaging data, Bladder: 89.40
  Imaging data, Bone: 0.53
  Imaging data, Brain: 0.23
  Imaging data, Heart: 0.45
  Imaging data, Intestine: 0.92
  Imaging data, Kidney: 0.71
  Imaging data, Liver: 0.52
  Imaging data, Lung: 0.54
  Imaging data, Muscle: 0.17
  Imaging data, Tumor: 6.40
3 h
  Imaging data, Bladder: 7.50
  Imaging data, Bone: 0.14
  Imaging data, Brain: 0.12
  Imaging data, Heart: 0.21
  Imaging data, Intestine: 0.60
  Imaging data, Kidney: 0.55
  Imaging data, Liver: 0.43
  Imaging data, Lung: 0.55
  Imaging data, Muscle: 0.19
  Imaging data, Tumor: 5.20
  uptake in the tumor at 3 hours: a certain amount of uptake in the tumor was still observed
[1]
  time of peak uptake in the tumor after injection: 1.5 h

## N#C[C@@H]1CC(F)(F)CN1C(=O)CNC(=O)c1cc2c(s1)CCN(C(=O)CCC(=O)NCCNC(=O)CCNC(=O)CN1CCN(CC(=O)O)CCN(CC(=O)O)CCN(CC(=O)O)CC1)C2 [^68Ga-JHH11, metal not drawn]
5 min
  Imaging data, Bladder: 4.24
  Imaging data, Bone: 0.92
  Imaging data, Brain: 0.98
  Imaging data, Heart: 8.61
  Imaging data, Intestine: 1.96
  Imaging data, Kidney: 13.43
  Imaging data, Liver: 5.43
  Imaging data, Lung: 3.12
  Imaging data, Muscle: 0.82
  Imaging data, Tumor: 1.06
10 min
  Imaging data, Bladder: 17.03
  Imaging data, Bone: 1.68
  Imaging data, Brain: 0.66
  Imaging data, Heart: 4.33
  Imaging data, Intestine: 1.99
  Imaging data, Kidney: 15.81
  Imaging data, Liver: 3.56
  Imaging data, Lung: 2.08
  Imaging data, Muscle: 1.22
  Imaging data, Tumor: 2.47
15 min
  Imaging data, Bladder: 27.04
  Imaging data, Bone: 1.17
  Imaging data, Brain: 0.59
  Imaging data, Heart: 3.22
  Imaging data, Intestine: 1.66
  Imaging data, Kidney: 20.15
  Imaging data, Liver: 2.78
  Imaging data, Lung: 1.97
  Imaging data, Muscle: 1.16
  Imaging data, Tumor: 3.26
20 min
  Imaging data, Bladder: 45.38
  Imaging data, Bone: 1.08
  Imaging data, Brain: 0.55
  Imaging data, Heart: 2.72
  Imaging data, Intestine: 1.54
  Imaging data, Kidney: 13.33
  Imaging data, Liver: 2.44
  Imaging data, Lung: 1.88
  Imaging data, Muscle: 0.98
  Imaging data, Tumor: 3.87
25 min
  Imaging data, Bladder: 60.89
  Imaging data, Bone: 1.22
  Imaging data, Brain: 0.45
  Imaging data, Heart: 2.29
  Imaging data, Intestine: 1.30
  Imaging data, Kidney: 8.42
  Imaging data, Liver: 2.16
  Imaging data, Lung: 1.47
  Imaging data, Muscle: 0.75
  Imaging data, Tumor: 4.30
30 min
  Imaging data, Bladder: 73.70
  Imaging data, Bone: 0.82
  Imaging data, Brain: 0.41
  Imaging data, Heart: 1.98
  Imaging data, Intestine: 1.22
  Imaging data, Kidney: 5.54
  Imaging data, Liver: 2.05
  Imaging data, Lung: 1.48
  Imaging data, Muscle: 0.65
  Imaging data, Tumor: 4.60
1.5 h
  Imaging data, Bladder: 265.50
  Imaging data, Bone: 0.50
  Imaging data, Brain: 0.03
  Imaging data, Heart: 0.20
  Imaging data, Intestine: 0.62
  Imaging data, Kidney: 1.00
  Imaging data, Liver: 0.78
  Imaging data, Lung: 0.58
  Imaging data, Muscle: 0.37
  Imaging data, Tumor: 4.40
3 h
  Imaging data, Bladder: 4.50
  Imaging data, Bone: 0.02
  Imaging data, Brain: 0.04
  Imaging data, Heart: 0.12
  Imaging data, Intestine: 0.08
  Imaging data, Kidney: 0.46
  Imaging data, Liver: 0.82
  Imaging data, Lung: 0.25
  Imaging data, Muscle: 0.08
  Imaging data, Tumor: 2.30
  uptake in the tumor at 3 hours: tumor uptake was still observed
After injection
  metabolism and excretion from the mice: rapidly metabolized and excreted from the mice
[1]
  time of peak tumor uptake after injection: 30 min
